Test results: PubChem BioAssay (NCI)
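48-hour exposure; five concentrations; linearly interpolated endpoints. At the GI50, growth is halved. TGI: concentration producing complete growth inhibition.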

Columns and labels:
Assay in all cases: NCI tumour cell line growth inhibition, 48 h
[1] = test system: BT-549 breast
[2] = test system: COLO 205 colon
[3] = test system: MDA-MB-231 breast
[4] = test system: OVCAR-5 ovarian
[5] = test system: SK-OV-3 ovarian
[6] = test system: SW-620 colon
[7] = test system: U251 CNS
[8] = test system: UACC-62 melanoma
[9] = test system: UO-31 renal
[10] = test system: MDA-MB-435

SMILES	GI50 [1] [µM]	TGI [1] [µM]	GI50 [2] [µM]	TGI [2] [µM]	GI50 [3] [µM]	TGI [3] [µM]	GI50 [4] [µM]	TGI [4] [µM]	GI50 [5] [µM]	TGI [5] [µM]	GI50 [6] [µM]	TGI [6] [µM]	GI50 [7] [µM]	TGI [7] [µM]	GI50 [8] [µM]	TGI [8] [µM]	GI50 [9] [µM]	TGI [9] [µM]	GI50 [10] [µM]	TGI [10] [µM]
CCc1cccc(C)c1NC(=O)c1sc2nc3c(cc2c1N)CCCCC3	5.18	54.9	2.98	15.2	4.35	> 100	7.74	> 100	5.24	> 100	3.76	> 100	3.62	80.9	3.31	> 100	6.08	> 100		
COc1cc(-c2cc3ncccc3c3nc(N)c4cccnc4c23)cc(OC)c1OC	0.285	1.88	0.246	18.9	1.25	> 100	4.98	> 100	0.538	72.5	0.468	> 100	0.553	16.9	0.358	19.4	0.936	59.8	0.0455	11.2
COCCCNC(=O)C1C(=O)N(CCCOC)C(=O)/C1=N\N (configuration not stated)				> 100				> 100				> 100		> 100		> 100		> 100		
CC(=O)[CH-]C(C)=O.CC(=O)[CH-]C(C)=O.[CH2-]CCC.[CH2-]CCC.[Sn+4]			0.304	1.05			1.82	3.22	1.69	3.09	0.148	0.375	0.304	1.06	0.31	1.18	1.03	2.21		
C=C1C(=O)O[C@H]2C[C@@H]1CC/C(C)=C/CC/C(C)=C/CC[C@H]2C	17.1	41.5	30.1	> 83.7	18.9	38.9	17.2	34.6	19.2	38.9	14.7	45.9	14.6	28.3	19.3	34.6	1.12	4.02	7.51	27.2
O=C(CO[N+](=O)[O-])Nc1ccc(C(=O)/C=C/c2ccc(Cl)cc2)cc1	1.86	5	2.57	6.09	5.39	21.2	14.8	36	10.1	65.9	1.44	2.88	1.48	3.15	2.76	11	1.52	12.1	2.96	11.2
c1cc(N(CCn2cccn2)CCn2cccn2)cc(N(CCn2cccn2)CCn2cccn2)c1				> 100						> 100		> 100		> 100		> 100		> 100		
CCN(Cc1cccc(F)c1)c1ccc(CO)c(Cl)c1	11	28.3	1.57	4.85	19	> 55.3	0.148	0.605	6.68	36.3	0.808	> 100	1.01	26.5	0.0741	0.649	5.09	58.7	18.2	55.1
FC(F)(F)c1nc2nc(Cl)c(Cl)nc2n1CCCN1CCOCC1		> 100		> 100		> 100		> 100		> 100		> 100		> 100		> 100				> 100
Nc1ccccc1C(=O)CC1OC(=O)c2ccccc21 (configuration not stated)		90.5				> 100		> 100		> 100		> 100		> 100		> 100		> 100		> 100
CCC[CH2][Sn]1([CH2]CCC)[O]CC(Cc2ccccc2)[O]1 (configuration not stated)			2.55	5.7			11.2	23.3	12	25.1	1.63	3.48	1.85	3.91	1.7	3.69	6.17	19		
COc1ccc2c(c1)N1CCc3cc(OC)c(OC)cc3C1C2 (configuration not stated)				> 100						> 100		> 100		> 100		> 100		> 100		
Cc1sc2nc(-c3ccncc3)c(/C=N/N=C(N)N)n2c1C	73.5	> 100			25.3	61.5	74.6	> 100	62.2	> 100	34.7	> 100	30.5	> 100	17.3	50.3	54.1	> 100	26.2	> 100
C=C(C)C(=O)O[C@H]1C[C@@]23O[C@@H]2CCC(=C[C@H]2OC(=O)C(=C)[C@H]12)COC3O (some centres not stated)		> 100		56.8		> 100		> 100		> 100		36.4		> 100		> 100				> 100
CN(C)CC(C)(C)C(=O)/C=C/c1ccc(/C=C/C(=O)C(C)(C)CN(C)C)cc1				2.24				3.51		8.12		2.17		3.04		3.17		3.49		
O=C(CP(=O)(O)O)NC(CC(=O)OCc1ccccc1)C(=O)OCc1ccccc1 (configuration not stated)				> 100		> 100		> 100		> 100		> 100		> 100		> 100		> 100		> 100
Cc1[nH]c2ccccc2c1C(=O)CC1(O)C(=O)Nc2ccccc21 (configuration not stated)				> 100				> 100		> 100		> 100		> 100		> 100		> 100		
O=C(O)CCCCCCC[C@H]1S[C@H]1CCCCCCO				> 100				> 100		> 100				> 100		> 100		> 100		
COc1ccc(S(=O)(=O)Nc2ccccc2C(=O)O)cc1				> 100				> 100		> 100		> 100		> 100		> 100		> 100		
CC(C(=O)c1ccccc1)C(c1ccccc1)N1CCOCC1 (configuration not stated)		> 100		> 100		> 100		> 100		> 100		> 100		> 100		> 100				> 100
C#Cc1cccc(N2C(=O)CCC2=O)c1				24.8		44.6		32.5		43		19.2		33		33.8		31.9		31.2

SMILES	GI50 [1] [µM]	TGI [1] [µM]	GI50 [2] [µM]	TGI [2] [µM]	GI50 [3] [µM]	TGI [3] [µM]	GI50 [4] [µM]	TGI [4] [µM]	GI50 [5] [µM]	TGI [5] [µM]	GI50 [6] [µM]	TGI [6] [µM]	GI50 [7] [µM]	TGI [7] [µM]	GI50 [8] [µM]	TGI [8] [µM]	GI50 [9] [µM]	TGI [9] [µM]	GI50 [10] [µM]	TGI [10] [µM]
C=C(COC(C)=O)CC(OC(C)=O)c1ccccc1 (configuration not stated)				> 100				> 100		> 100		> 100		> 100		> 100		> 100		
CC1CCC2(CC1)NN=c1s/c(=C\c3ccc(O)cc3)c(=O)n1N2 (configuration not stated)				> 100						> 100		> 100		> 100		> 100				
CNC(=O)c1ccc(N2CCN(Cc3ccc4nc(C)c(=O)[nH]c4c3F)CC2)c(F)n1	89.6	> 100	> 100	> 100	39.5	> 100	> 100	> 100	> 100	> 100	> 100	> 100	36.5	> 100			> 100	> 100	> 100	> 100
C=C1C(O)C2C(=C(CCc3ccccc3)C13CC3)C(=O)C(C)(CO)C2O (configuration not stated)	> 100	> 100	> 100	> 100	> 100	> 100	> 100	> 100			> 100	> 100	> 100	> 100	> 100	> 100	> 100	> 100	> 100	> 100
COc1ccc(OC)c2c1CC(C(=O)O)(C(=O)O)CC2=O								> 100		> 100		> 100		> 100		> 100		> 100		
COc1ccc(OC)c(/C(C)=N/NC(N)=S)c1				> 100				> 100		> 100		> 100		> 100		> 100		> 100		
COC(=O)N(C(=O)OC)C(C(=O)O)C(C)C (configuration not stated)				> 100				> 100				> 100		> 100				> 100		
Fc1ccc2[nH]cc(-c3nonc3-c3c[nH]c4ccc(Br)cc34)c2c1	3.38	15			1.3	2.88	2.15	5.8	4.34	22.4	1.76	3.84	3.26	10.3	1.72	4.38	1.39	4.36	3.27	12.3
Cc1cc(=O)oc2cc(OC(=O)N(C)C)c(Cl)cc12		> 100		> 100		> 100		> 100				> 100		> 100		83.2		> 100		> 100
CC(C)=CCc1c(OC(=O)c2c(C)cc(O)cc2O)cc(CO)c(CO)c1O		41		33.8		48.3		43.1		30.9				40		29.6		34.4		45.9
Cc1ccc(C)c2c1C(O)(C#Cc1ccccc1)c1ccccc1C2(O)C#Cc1ccccc1 (configuration not stated)			2.01	6.48	2.84	> 100	8.39	> 100	3.44	> 100	3.03	> 100	2.76	> 100	2.84	> 100	1.89	6.83	2.42	16.2
C[N-]c1nnnn1C.[Au+].c1ccc([PH+](c2ccccc2)c2ccccc2)cc1			3.33	8.81			19.1	34	13	26.6			2.28	5.56	2.06	6.87	12.7	25.3		
CC(C)CCC(=O)c1ccoc1				> 100		> 100		> 100		> 100		> 100		> 100		> 100		> 100		> 100
CC(C)CC(NC(=O)c1cccc(O)c1O)C(=O)NCc1cc(CNC(=O)C(CC(C)C)NC(=O)c2cccc(O)c2O)cc(CNC(=O)C(CC(C)C)NC(=O)c2cccc(O)c2O)c1 (configuration not stated)				34.3				27.1		35.5		61.8		29.5		17.8		70.1		
O=c1nc(/C=C/c2ccccc2Cl)cc2n1CCN2CCO				> 100				> 100		> 100		> 100				> 100		> 100		
O=C1c2ccccc2C(Br)(Br)c2ccccc21				> 31.6				> 31.6		> 31.6		> 31.6		> 31.6		> 100		> 31.6		
Cc1cc2c(ccc3c(C)cc(=O)oc32)o1				> 100				> 100		> 100		> 100		> 100		> 100		> 100		
COc1ccc(Nc2nc3ccc(C(F)(F)F)cc3nc2-c2ccccc2)cc1OC				91.2				> 100		> 100		> 100		> 100		> 100		72.9		
CCCCCC[N+](C)(C)Cc1ccc(C[N+](C)(C)CCCCCC)cc1								24.7		33.4		26.6		7.28		29.7		29.8		
Cc1cc(S(=O)(=O)Nc2nc3cscc3c(=O)n2Cc2ccccc2)c(S)cc1Cl	81.1	> 100	> 100	> 100	34	> 100	87.1	> 100			26.6	> 100	34.9	> 100	50.5	> 100	51.8	> 100	44.4	> 100
